Assay results reported in patent US5594012A, “Amino acid derivatives and anti-active oxygen agents” (Ajinomoto Co., Inc., priority 1992, dated 1997).

Tests used:
UV absorptive activities = assay type: physicochemical; conditions: 100 μM in ethanol (water or DMSO added if not soluble)
Experimental: Test for UV Absorptive Activities
A solution of each of the test compounds shown in Table 10 below in ethanol was prepared for the final concentration to be 100 μM. If test compounds were not soluble in ethanol alone, water or DMSO was added.
The absorption spectrum of each sample was determined using a spectrophotometer "Model 320" (manufactured by Hitachi).

hydroxyl radical [1] = experiment: Inhibitory effects on hydroxyl radical formation (2) (iron (II)/hydrogen peroxide, DMPO, ESR); assay type: biochemical; conditions: 306 μM test compound; 306 μM iron (II) sulphate; 75 mM DMPO; 306 μM hydrogen peroxide; ESR within 40 seconds
Experimental: Test for Inhibitory Effects on Hydroxyl Radical Formation (2)
To 75 μl of a solution of each of the test compounds shown in Table 9 below in 0.1M phosphate buffer (hereinafter referred to as "PBS-3") were successively added 75 μl of an aqueous solution of iron (II) sulphate, 20 μl of an aqueous solution of 5,5-dimethyl-1-pyrroline-N-oxide "DMPO" (manufactured by Dojin Chemical) and 75 μl of an aqueous solution of hydrogen peroxide. […] If test compounds were not soluble in PBS-3 alone, an aqueous sodium hydroxide solution or N,N-dimethyl formamide was added.
This solution was subjected to determination for the hydroxy radical immediately (within 40 seconds), using an electron spin resonance (ESR) meter "JES-FR80S" (manufactured by Nippon Denshi).
[formula] E1 : Signal magnitude when a test compound was added. E2 : Signal magnitude when a test compound was not added.

[2] = system: lipid peroxidation in homogenate of murine swiss 3T3 cells; experiment: Inhibitory effects on UV-induced lipid peroxidation (homogenate of murine swiss 3T3 cells); assay type: biochemical; conditions: 1 mM test compound; UVB 0.4 mW/cm^2, 90 min; pH 7.2 to 7.8; TBA, 535 nm
Experimental: Test for Inhibitory Effects on UV-induced Lipid Peroxidation
The test was carried out on the basis of the methods described in Biochim. Biophys. […] Namely, 12 μl of an aqueous sodium hydroxide solution of each of the test compounds shown in Table 5 below was added to 1.2 ml of a homogenate of murine swiss 3T3 cells (i.e. a kind of murine skin cells) prepared by a conventional method in 20 mM phosphate buffer (protein content: 1.5 to 1.8 mg/ml). The final concentration of the test compounds was adjusted to be 1 mM and the pH of the solution was adjusted to 7.2 to 7.8. If test compounds were not soluble in an aqueous sodium hydroxide solution, they were dissolved in N,N-dimethyl sulfoxide (DMSO).
This solution (1.1 ml) was irradiated with UV rays (0.4 mW/cm^2, 90 min.) using a UVB lamp "EB-280C/J" (manufactured by Spectronics). To an aliquot (1.0 ml) of this solution were successively added 0.2 ml of an aqueous solution of sodium dodecyl sulfate and 1.0 ml of an aqueous solution of thiobarbituric acid/trichloroacetic acid/hydrochloric acid, and the mixed solution was heated in a boiling water bath for 15 minutes. After ice-cooling, the solution was extracted with 1.0 ml of 1-butanol to prepare a sample for determining peroxide lipid as absorbance at a wavelength of 535 nm using a spectrophotometer "Model 320" (manufactured by Hitachi).
(§1) [formula] A1 : Absorbance when a test compound was added. A2 : Absorbance when a test compound was not added.
A3 : Absorbance when a test compound was not added and UV rays were not irradiated.

hydroxyl radical [3] = experiment: Inhibitory effects on hydroxyl radical formation (1) (xanthine/xanthine oxidase, deoxyribose); assay type: biochemical; conditions: 360 μM test compound; 36 μM ammonium iron (III) sulphate; xanthine oxidase 0.7 unit/ml; 37° C., 15 minutes; pH 7.4 to 7.8
Experimental: Test for Inhibitory Effects on Hydroxyl Radical Formation (1)
The test was carried out in accordance with the method described in FEBS Letters, Vol. 128, page 347, 1981. Namely, to 1.1 ml of a solution of 54 mM sodium chloride in 9 mM phosphate buffer (hereinafter referred to as "PBS-I") were successively added 140 μl of a solution of each of the test compounds shown in Table 6 below in PBS-1, […] of a 1 mM solution of ammonium iron (III) sulphate in hydrochloric acid, 140 μl of a solution of xanthine (manufactured by Tokyo Kasei Co.) in PBS-1, 14 μl a solution of deoxyribose (Sigma) in PBS-1 and xanthine oxidase (Sigma). The final concentrations of the test compounds, ammonium iron (III) sulphate, xanthine, deoxyribose and xanthine oxidase were adjusted to be 360 μM, 36 μM, 70 μM, 700 μM and 0.7 unit/ml, respectively. If test compounds were not soluble in PBS-1 alone, aqueous sodium hydroxide solution or DMSO was added. The pH of the solution was adjusted to 7.4 to 7.8.
. The percent inhibition of the hydroxyl radical was calculated from the following equation (2) and the results are shown in Table 6. [formula] F1 : Intensity of fluorescence when a test compound was added. F2 : Intensity of fluorescence when a test compound was added but deoxyribose was not added.
F3 : Intensity of fluorescence when a test compound was not added.
F4 : Intensity of fluorescence when neither test compound nor deoxyribose was added.

[4] = system: lipid peroxidation in murine brain homogenate; experiment: Inhibitory effects on metal ion-induced lipid peroxidation (murine brain homogenate); assay type: biochemical, murine (C57 black mouse); conditions: 1 mM test compound; 100 μM ammonium iron (II) sulphate; 37° C., 30 minutes; pH 7.2 to 7.8
Experimental: Test for Inhibitory Effects on Metal Ion-induced Lipid Peroxidation
(§2) The test was carried out according to the method described in Method in Enzymol., Vol. 52, page 302, 1978. A C57 black mouse was killed by cervical dislocation, and the whole brain extracted from the dissected head was washed with 20 mM phosphate buffer (hereinafter referred to as "PBS-2"). Then, the brain was added with PBS-2 in an amount of 19 times its wet weight, and the mixture was disrupted and homogenized with a homogenizer "Polytron" (manufactured by Kinematica). The thus prepared 5% solution of the murine brain homogenate in PBS-2 was diluted 1:5 with fresh PBS-2. To 800 μl of the resulting 1% solution of the murine brain homogenate in PBS-2 (protein content: 0.8 to 1.0 mg/ml) were successively added 100 μl of a PBS-2 solution of each of the test compounds shown in Table 7 below and 100 μl of an aqueous solution of ammonium iron (II) sulphate. The final concentration of the test compounds and ammonium iron (II) sulphate were adjusted to be 1 mM and 100 μM, respectively. If test compounds were not soluble in PBS-2 alone, an aqueous sodium hydroxide solution or DMSO was added. The pH of the solution was adjusted to 7.2 to 7.8.
The solution after heated at 37° C. for 30 minutes was added with 2.0 ml of an aqueous solution of thiobarbituric acid/trichloroacetic acid/hydrochloric acid, and the mixture was heated in a boiling water bath for 15 minutes. After ice-cooling, the solution was extracted with 1.0 ml of 1-butanol to prepare a sample for determining the peroxide lipid in the same way as described in Test Example 1.
as §1
A3 : Absorbance when a test compound was not added and heating at 37° C. for 30 minutes was not carried out.

[5] = system: lipid peroxidation in murine brain homogenate; experiment: Inhibitory effects on lipid peroxidation (murine brain homogenate); assay type: biochemical, murine (C57 black mouse); conditions: 30 μM test compound; no added iron; 37° C., 60 minutes; pH 7.2 to 7.8
Experimental: as §2
Test for Inhibitory Effects on Lipid Peroxidation
To 900 μl of a 5% solution of the murine brain homogenate in PBS-2 prepared in the same way as described in Test Example 3 was added 100 μl of a PBS-2 solution of each of the test compounds shown in Table 8 below. The final concentration of the test compounds was adjusted to be 30 μM. If test compounds were not soluble in PBS-2 alone, an aqueous solution of sodium hydroxide or DMSO was added. The pH of the solution was adjusted to 7.2 to 7.8.
The solution after heated at 37° C. for 60 minutes was added with 1.0 ml of an aqeuous solution of thiobarbituric acid/trichloroacetic acid/hydrochloric acid, and the mixture was heated in a boiling water bath for 15 minutes. After ice-cooling, the solution was extracted with 2.0 ml of 1-butanol to prepare a sample for determining the lipid peroxide in the same way as described in Test Example 1. […] [formula] A4 : Absorbance when a test compound was added. A5 : Absorbance when a test compound was not added.
A6 : Abosrbance when a test compound was not added and heating at 37° C. for […] was not carried out.

- Wavelength (nm) of maximum absorption (UV absorptive activities): 307 nm
- Maximum molar extinction coefficient (UV absorptive activities; UVA and UVB regions): 10,000
- % Inhibition of hydroxyl radical (hydroxyl radical [3]): 19%
SMILES: O=C(O)C(CO)N=Cc1c(O)ccc2ccccc12 (stereo not shown) [Synthesis Example 28]
- % Inhibition of hydroxy radicals (hydroxyl radical [1]): 56%
- % Inhibition of UV-induced lipid peroxidation [2]: 20%
- % Inhibition of metal ion-induced lipid peroxidation [4]: 80%
- % Inhibition of lipid peroxidation [5]: 70%
